Data from publication PMC4363092 (Journal of medicinal chemistry, 2014).

Assays:
TNAP [1] = target: T1, TNAP (Homo sapiens, UniProt P05186); test: TNAP stability assay: hydrolysis by TNAP; assay type: in vitro ADME; conditions: 1 h, pH 9, 100 μM (data not shown)
T1 sequence (P05186 18-502 limits assumed): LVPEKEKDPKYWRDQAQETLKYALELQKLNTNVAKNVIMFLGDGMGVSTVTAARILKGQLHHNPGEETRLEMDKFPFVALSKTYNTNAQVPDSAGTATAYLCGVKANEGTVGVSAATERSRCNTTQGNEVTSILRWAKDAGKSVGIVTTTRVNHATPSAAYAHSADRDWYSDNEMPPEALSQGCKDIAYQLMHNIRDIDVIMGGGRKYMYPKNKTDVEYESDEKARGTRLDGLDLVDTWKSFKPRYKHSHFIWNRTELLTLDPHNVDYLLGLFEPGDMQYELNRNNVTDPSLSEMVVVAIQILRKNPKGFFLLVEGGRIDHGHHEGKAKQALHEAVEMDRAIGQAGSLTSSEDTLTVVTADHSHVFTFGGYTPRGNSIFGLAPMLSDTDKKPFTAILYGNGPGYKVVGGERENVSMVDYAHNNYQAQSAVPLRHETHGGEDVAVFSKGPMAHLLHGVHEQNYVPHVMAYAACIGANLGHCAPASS

P2Y2 receptor = P2Y2 receptor (Homo sapiens, UniProt P41231); test: [Ca2+]i response in 1321N1 astrocytoma cells expressing GFP-P2Y2 receptor; assay type: cell-based; conditions: for agonist activity at P2Y2R: 100 μM; for inhibition of the typical response to UTP at P2Y2R: 1321N1 cells (data not shown)
TNAP [2] = target: T1, TNAP; test: Inhibition of TNAP activity; assay type: biochemical; conditions: analogue 100 μM
human NTPDase2 = target: T2, human NTPDase2 (Homo sapiens, UniProt Q9Y5L3); conditions: analogue 100 μM as substrate; activity with 100 μM ATP set as 100%
T2 sequence (Q9Y5L3 1-495): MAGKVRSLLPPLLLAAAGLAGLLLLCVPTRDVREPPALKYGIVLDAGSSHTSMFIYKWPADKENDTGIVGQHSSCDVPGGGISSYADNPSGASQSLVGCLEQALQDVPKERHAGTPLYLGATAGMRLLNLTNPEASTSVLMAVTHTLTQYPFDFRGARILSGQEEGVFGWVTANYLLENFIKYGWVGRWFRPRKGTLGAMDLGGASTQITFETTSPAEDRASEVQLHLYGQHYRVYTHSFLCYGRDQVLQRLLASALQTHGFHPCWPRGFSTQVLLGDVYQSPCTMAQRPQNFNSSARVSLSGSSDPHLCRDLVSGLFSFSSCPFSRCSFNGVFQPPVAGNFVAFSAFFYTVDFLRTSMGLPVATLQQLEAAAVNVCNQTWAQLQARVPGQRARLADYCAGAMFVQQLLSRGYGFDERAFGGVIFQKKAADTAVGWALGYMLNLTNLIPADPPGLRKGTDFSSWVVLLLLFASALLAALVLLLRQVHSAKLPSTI

human NPP1 = target: T3, human NPP1 (Homo sapiens, UniProt P22413); test: Inhibition of NPP1, ATP as substrate; assay type: biochemical; conditions: analogue 100 μM, ATP 100 μM
T3 sequence (P22413 1-925): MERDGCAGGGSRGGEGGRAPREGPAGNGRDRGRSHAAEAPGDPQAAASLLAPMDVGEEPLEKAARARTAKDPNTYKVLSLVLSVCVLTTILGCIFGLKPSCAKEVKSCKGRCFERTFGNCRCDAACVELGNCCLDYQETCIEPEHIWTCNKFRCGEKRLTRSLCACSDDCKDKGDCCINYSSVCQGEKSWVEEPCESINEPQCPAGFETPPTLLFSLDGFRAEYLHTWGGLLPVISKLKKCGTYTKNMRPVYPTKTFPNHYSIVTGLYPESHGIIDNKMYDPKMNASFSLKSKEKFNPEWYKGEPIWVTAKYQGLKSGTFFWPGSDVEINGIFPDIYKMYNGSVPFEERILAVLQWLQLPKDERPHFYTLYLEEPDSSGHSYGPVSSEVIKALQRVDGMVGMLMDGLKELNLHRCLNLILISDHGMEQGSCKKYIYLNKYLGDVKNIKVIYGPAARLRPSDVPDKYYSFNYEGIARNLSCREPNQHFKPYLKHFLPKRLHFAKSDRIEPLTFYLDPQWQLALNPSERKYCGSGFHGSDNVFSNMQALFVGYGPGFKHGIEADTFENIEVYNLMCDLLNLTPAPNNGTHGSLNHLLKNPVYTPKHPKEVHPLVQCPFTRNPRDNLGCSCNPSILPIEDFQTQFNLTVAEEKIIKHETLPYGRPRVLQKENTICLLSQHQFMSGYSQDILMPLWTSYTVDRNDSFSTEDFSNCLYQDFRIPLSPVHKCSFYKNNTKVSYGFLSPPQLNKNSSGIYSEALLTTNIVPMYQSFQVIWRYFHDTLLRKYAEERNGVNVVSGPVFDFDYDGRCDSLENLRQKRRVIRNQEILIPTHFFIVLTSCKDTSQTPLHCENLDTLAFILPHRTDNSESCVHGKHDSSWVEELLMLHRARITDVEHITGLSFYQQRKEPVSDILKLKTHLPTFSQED

human NTPDase3 = target: T4, human NTPDase3 (Homo sapiens, UniProt O75355); conditions: analogue 100 μM as substrate; activity with 100 μM ATP set as 100%
T4 sequence (O75355 1-529): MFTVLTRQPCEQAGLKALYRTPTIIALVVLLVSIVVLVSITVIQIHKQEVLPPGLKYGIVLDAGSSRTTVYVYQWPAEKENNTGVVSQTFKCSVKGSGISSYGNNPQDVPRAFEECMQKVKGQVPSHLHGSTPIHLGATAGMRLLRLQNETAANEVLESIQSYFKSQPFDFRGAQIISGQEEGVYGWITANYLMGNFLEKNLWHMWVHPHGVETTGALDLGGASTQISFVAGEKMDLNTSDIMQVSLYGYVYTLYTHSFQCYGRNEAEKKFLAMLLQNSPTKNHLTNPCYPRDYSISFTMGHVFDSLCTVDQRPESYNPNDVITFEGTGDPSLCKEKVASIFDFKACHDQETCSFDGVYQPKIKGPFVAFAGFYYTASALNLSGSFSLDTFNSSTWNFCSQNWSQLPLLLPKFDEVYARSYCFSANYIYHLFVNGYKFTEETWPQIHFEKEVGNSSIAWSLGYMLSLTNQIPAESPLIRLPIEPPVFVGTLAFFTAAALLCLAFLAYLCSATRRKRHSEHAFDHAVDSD

Chain of P2Y2 receptor (P41231 whole entry): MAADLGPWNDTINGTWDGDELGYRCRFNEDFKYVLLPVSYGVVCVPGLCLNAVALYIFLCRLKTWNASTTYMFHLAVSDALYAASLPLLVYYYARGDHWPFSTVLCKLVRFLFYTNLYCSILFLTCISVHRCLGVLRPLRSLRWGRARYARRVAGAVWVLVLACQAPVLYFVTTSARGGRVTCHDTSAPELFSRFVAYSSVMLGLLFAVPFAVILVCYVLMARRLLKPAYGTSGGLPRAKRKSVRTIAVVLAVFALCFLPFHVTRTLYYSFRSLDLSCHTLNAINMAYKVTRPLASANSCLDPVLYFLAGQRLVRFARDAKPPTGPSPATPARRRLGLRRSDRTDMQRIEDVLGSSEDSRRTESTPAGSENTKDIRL

With `Nc1ncnc2c1ncn2[C@@H]1O[C@H](CO[P@](O)(=S)OP(=O)(O)C(Cl)(Cl)P(=O)(O)O)[C@@H](O)[C@H]1O` [2a] the “hydrolysis by TNAP” value (TNAP [1]) was “fully stable”, the “agonist activity at P2Y2R” value (P2Y2 receptor) was “no activity” and the “inhibition of the typical response to UTP at P2Y2R” value (P2Y2 receptor) was “did not inhibit”. The “inhibition of TNAP” value (TNAP [2]) was 8–17%, the “relative activity (%) ± SD of ATP hydrolysis, NTPDase2” value (human NTPDase2) was 5.2 ± 0.1% and the “inhibition of ATP hydrolysis by NPP1” value (human NPP1) was “about 90%”. For the same compound, the “relative activity (%) ± SD of ATP hydrolysis, NTPDase3” value (human NTPDase3) was 5.2 ± 0.2%.

With `Nc1ncnc2c1ncn2[C@@H]1O[C@H](COP(=O)(O)CP(=O)(O)OP(O)(O)=S)[C@@H](O)[C@H]1O` [compound 3] the “hydrolysis by TNAP” value (TNAP [1]) was 2.5%, the “agonist activity at P2Y2R” value (P2Y2 receptor) was “no activity” and the “inhibition of the typical response to UTP at P2Y2R” value (P2Y2 receptor) was “did not inhibit”. For the same compound, the “inhibition of TNAP” value (TNAP [2]) was 8–17%, the “relative activity (%) ± SD of ATP hydrolysis, NTPDase2” value (human NTPDase2) was 4.7 ± 0.2% and the “inhibition of ATP hydrolysis by NPP1” value (human NPP1) was “about 90%”. For the same compound, the “relative activity (%) ± SD of ATP hydrolysis, NTPDase3” value (human NTPDase3) was 4.8 ± 0.2%.
